The results in this text go back to patent EP4162932A1, “ANTIVIRAL HOP CONSTITUENTS” (HHV Hallertauer Hopfenveredelungsgesellschaft mbH, priority 2021, dated 2023).

In one series the test system is icSARS-CoV-2-mNG. Put plainly: microbe, parasite or virus in culture. It counts as cell-based, SARS-CoV-2. Conditions: Severe acute respiratory syndrome coronavirus 2, Caco-2, 48 h; read-out: half maximal inhibitory concentration (IC50) on virus replication.
The target in a further series is SARS-CoV-2 PLpro (Severe acute respiratory syndrome coronavirus 2, UniProt P0DTD1). Put plainly: PLpro kinetic inhibition assay, cleavage of AMC peptide mimicking the C-terminus of human ISG15. The class given is biochemical.
A further series in a line: in vitro. Conditions: human, Caco-2.

Regarding `COc1cc(O)c(CC=C(C)C)c2c1C(=O)CC(c1ccc(O)cc1)O2` (centres unmarked) [IX, isoxanthohumol], the IC50 in the series with icSARS-CoV-2-mNG is 20.1 µM; on SARS-CoV-2 PLpro, 59 ± 15 µM. In the series “in vitro”, this compound gave a CC50 of 19.5 µM.
`CC(C)=CCc1c(O)cc2c(c1O)C(=O)C[C@@H](c1ccc(O)cc1)O2` [6-PN, 6-prenylnaringenin]: the IC50 worked out at 7.26 µM in the series with icSARS-CoV-2-mNG and 131 ± 10 µM against SARS-CoV-2 PLpro. Moreover, the CC50 in “in vitro” was determined as 22.6 µM.
As to `CC(C)=CCc1c(O)cc(O)c2c1O[C@H](c1ccc(O)cc1)CC2=O` [8-PN, 8-prenylnaringenin], the IC50 in the series with icSARS-CoV-2-mNG was determined as 23 µM; at SARS-CoV-2 PLpro, 119 ± 13 µM. In “in vitro”, this compound registered a CC50 of 54.9 µM.
On to `COc1cc(O)c(CC=C(C)C)c(O)c1C(=O)/C=C/c1ccc(O)cc1` [XN, xanthohumol], for which the IC50 with icSARS-CoV-2-mNG was determined as 3.28 µM. In the series “in vitro”, this compound displayed a CC50 of 12.3 µM.
